# From PMC3507948, “Origin and Evolution of Retinoid Isomerization Machinery in Vertebrate Visual Cycle: Hint from Jawless Vertebrates” (PLoS ONE, 2012)
# Experiments:
# Type in all cases: cell-based
# [1] = target: T1, Ciona BCMOa (Ci-RPE65) (Ciona intestinalis, UniProt Q2PE71); test: lycopene loss in lycopene-accumulating E. coli, reverse-phase HPLC; conditions: arabinose induction, 18 h; no retinal detected; data not shown
# T1 construct: ORF from synthetic pUC57/ciBCMOa (Genscript), cloned in pBadTOPO, expressed in carotenoid-accumulating E. coli
# T1 sequence (Q2PE71 1-553): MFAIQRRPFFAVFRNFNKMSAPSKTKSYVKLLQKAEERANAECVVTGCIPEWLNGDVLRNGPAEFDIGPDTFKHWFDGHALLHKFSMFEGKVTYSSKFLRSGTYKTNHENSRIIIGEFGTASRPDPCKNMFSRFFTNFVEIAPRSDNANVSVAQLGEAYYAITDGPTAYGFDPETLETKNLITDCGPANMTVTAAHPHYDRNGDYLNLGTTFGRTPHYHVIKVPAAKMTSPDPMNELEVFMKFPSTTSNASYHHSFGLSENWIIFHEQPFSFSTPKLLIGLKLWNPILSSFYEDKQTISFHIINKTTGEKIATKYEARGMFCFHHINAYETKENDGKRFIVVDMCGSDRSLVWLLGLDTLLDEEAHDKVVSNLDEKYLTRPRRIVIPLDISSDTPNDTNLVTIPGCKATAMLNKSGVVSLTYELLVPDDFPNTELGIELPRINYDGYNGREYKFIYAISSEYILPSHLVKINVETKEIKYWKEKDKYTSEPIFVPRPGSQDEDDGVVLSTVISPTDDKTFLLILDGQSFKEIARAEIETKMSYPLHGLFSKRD
# [2] = target: T2, Ciona BCMOb (Ci-BCMO1; ci-BCO) (Ciona intestinalis, UniProt Q2PE72); test: as above; conditions: arabinose induction; no retinal detected; printed as β-carotene or lycopene
# T2 construct: expressed in carotenoid-accumulating E. coli
# T2 sequence (Q2PE72 1-524): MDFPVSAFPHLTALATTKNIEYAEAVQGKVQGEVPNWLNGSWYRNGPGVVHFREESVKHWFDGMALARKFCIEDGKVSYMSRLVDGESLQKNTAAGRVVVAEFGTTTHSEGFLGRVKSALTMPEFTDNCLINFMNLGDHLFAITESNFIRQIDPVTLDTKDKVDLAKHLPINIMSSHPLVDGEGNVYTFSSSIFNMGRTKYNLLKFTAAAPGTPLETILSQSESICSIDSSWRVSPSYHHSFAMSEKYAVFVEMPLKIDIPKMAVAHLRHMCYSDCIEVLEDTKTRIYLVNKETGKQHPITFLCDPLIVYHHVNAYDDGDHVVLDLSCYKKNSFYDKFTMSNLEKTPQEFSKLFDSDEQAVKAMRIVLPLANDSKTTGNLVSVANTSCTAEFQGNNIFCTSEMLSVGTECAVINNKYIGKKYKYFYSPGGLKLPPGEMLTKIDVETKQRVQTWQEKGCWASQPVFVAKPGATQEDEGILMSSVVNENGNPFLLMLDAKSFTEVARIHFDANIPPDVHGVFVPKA
# [3] = target: T2, Ciona BCMOb (Ci-BCMO1; ci-BCO); test: β-carotene loss in β-carotene-accumulating E. coli, reverse-phase HPLC; conditions: arabinose induction; no retinal detected
# [4] = target: T1, Ciona BCMOa (Ci-RPE65); test: as above; conditions: arabinose induction, 18 h; no retinal detected
# [5] = target: T3, Lamprey LRATb (Petromyzon marinus, UniProt A0AAJ7TIF3); test: retinol esterification in HEK293-F cells, HPLC, retinyl esters as % of total retinoids; conditions: with 50 µM A922500 to block endogenous DGAT1; all-trans retinol added to cells
# T3 construct: gene LOC116947134; full-length ORF cloned from adult female lamprey RPE (852 bp PCR product), 7-glycine tract at aa 160-166; pVITRO3, expressed in HEK293-F cells
# T3 sequence (A0AAJ7TIF3 1-274): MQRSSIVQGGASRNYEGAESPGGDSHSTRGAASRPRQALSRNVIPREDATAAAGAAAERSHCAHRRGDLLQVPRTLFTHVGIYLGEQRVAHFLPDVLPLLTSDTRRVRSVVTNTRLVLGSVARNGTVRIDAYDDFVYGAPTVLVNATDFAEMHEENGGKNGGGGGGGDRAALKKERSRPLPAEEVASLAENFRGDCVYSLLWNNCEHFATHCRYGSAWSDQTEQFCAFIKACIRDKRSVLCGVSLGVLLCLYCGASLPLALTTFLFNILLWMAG
# [6] = target: T4, Lamprey RPE65 (Petromyzon marinus, UniProt L0ATZ0); test: HEK293-F minimal visual cycle assay, normal-phase HPLC of saponified retinoids; conditions: co-expressed lamprey LRATb or bovine LRAT and bovine CRALBP; 2.5 µM all-trans retinol fed for 5 h; direct substrate is the retinyl ester formed in the cells
# T4 construct: pVITRO2 with bovine CRALBP, expressed in HEK293-F cells with LRAT
# T4 sequence (L0ATZ0 1-537): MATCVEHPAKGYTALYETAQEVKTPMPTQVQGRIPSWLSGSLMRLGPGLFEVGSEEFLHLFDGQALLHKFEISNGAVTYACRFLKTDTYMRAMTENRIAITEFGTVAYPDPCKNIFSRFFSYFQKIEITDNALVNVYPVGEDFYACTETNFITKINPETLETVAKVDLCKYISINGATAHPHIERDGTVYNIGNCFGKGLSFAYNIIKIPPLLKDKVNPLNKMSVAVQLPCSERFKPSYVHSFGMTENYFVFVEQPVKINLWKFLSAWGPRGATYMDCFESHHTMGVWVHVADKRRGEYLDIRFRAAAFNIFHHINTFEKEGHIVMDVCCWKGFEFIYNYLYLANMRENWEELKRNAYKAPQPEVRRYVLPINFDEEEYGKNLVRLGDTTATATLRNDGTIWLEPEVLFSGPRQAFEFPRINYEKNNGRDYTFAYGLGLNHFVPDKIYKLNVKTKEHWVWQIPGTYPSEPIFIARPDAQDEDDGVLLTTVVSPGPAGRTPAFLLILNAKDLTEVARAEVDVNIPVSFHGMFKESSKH
smiles,measurement,setting,value
CC(C)=CCC/C(C)=C/C=C/C(C)=C/C=C/C(C)=C/C=C/C=C(C)/C=C/C=C(C)/C=C/C=C(\C)CCC=C(C)C [lycopene],"lycopene loss in lycopene-accumulating E. coli, reverse-phase HPLC",[1],the amount of lycopene (data not shown) or β-carotene in induced cells decreased significantly
same,"lycopene loss in lycopene-accumulating E. coli, reverse-phase HPLC",[2],Quantification of β-carotene or lycopene in induced cell culture transformed with Ciona BCMOb (ci-BCO)
CC1=C(/C=C/C(C)=C/C=C/C(C)=C/C=C/C=C(C)/C=C/C=C(C)/C=C/C2=C(C)CCCC2(C)C)C(C)(C)CCC1 [β-carotene],"β-carotene loss in β-carotene-accumulating E. coli, reverse-phase HPLC",[3],Ciona BCMOb (ci-BCO) also demonstrated significant carotenoid cleavage activity
same,"β-carotene loss in β-carotene-accumulating E. coli, reverse-phase HPLC",[4],the amount of lycopene (data not shown) or β-carotene in induced cells decreased significantly
CC1=C(/C=C/C(C)=C/C=C/C(C)=C/CO)C(C)(C)CCC1 [all-trans retinol],"retinol esterification in HEK293-F cells, HPLC, retinyl esters as % of total ret",[5],Catalytic activity of Lamprey LRATb in HEK293F cells in the presence of specific DGAT1 inhibitor
CC1=C(/C=C/C(C)=C/C=C\C(C)=C\CO)C(C)(C)CCC1 [11-cis retinol],"HEK293-F minimal visual cycle assay, normal-phase HPLC of saponified retinoids",[6],Cells transfected with lamprey RPE65 and lamprey LRATb were also able to produce 11-cis retinol
